Patent US12209081B2 (Katholieke Universiteit Leuven, priority 2020, dated 2025)

target: mouse TRPM3α2 (mTRPM3) ion channel (Mus musculus (Mouse), UniProt J9SQF3); assay: TRPM3 ion channel driven Ca2+ uptake, Fluo-4 AM assay, mTRPM3alpha2 overexpressing flip-in HEK293 cells stimulated with pregnenolone sulfate; type: cell-based; details: PS (50 μM) stimulated, cpds. 500-599
Procedure: Part B Monitoring the TRPM3 Ion Channel Driven Ca^2+ Uptake.
In order to monitor the inhibition of the mouse TRPM3α2 (mTRPM3) ion channel by the compounds of the invention, a cellular system making use of an mTRPM3alpha2 or hTRPM3 overexpressing cell line (flip-in HEK293) was used. The TRPM3 channel was stimulated/opened with Pregnenolone sulfate (PS) (50 μM) which results in Ca^2+ influx.
For mTRPM3, the intracellular Ca^2+ was measured with a Calcium responsive dye. Fluor-4 AM ester (Invitrogen). Cells were cultured until a confluence of 80-90%, washed with Versene (Invitrogen) and detached from the surface by a short incubation with 0.05% Trypsin (Invitrogen). The trypsination process was stopped by the addition of complete cell culture medium (DMEM, glutamax, 10% FCS,NEAA,Pen-Strep). Cells were collected and resuspended in Krebs buffer without Calcium at RT.
Prior the cell seeding (±2000 cells/well into a black, 384 well plate (Greiner)) the diluted compound was added in the assay plate, together with the PS dissolved in Krebs buffer containing Calcium. […] Directly after cell addition the plates were read on an Envision fluorescence reader (Perkin Elmer) by an Excitation of 485 nm and emission at 535 nm.
Channel inhibition was calculated compared to a non-PS stimulated control versus a condition stimulated with PS (50 μM) with vehicle. The ability of the compounds of the invention to inhibit this activity was determined as: Percentage inhibition=[1-((RFU determined for sample with test compound present—RFU determined for sample with positive control inhibitor) divided by (RFU determined in the presence of vehicle—RFU determined for sample with positive control inhibitor))]*100.

Chain of mouse TRPM3α2 (mTRPM3) ion channel (J9SQF3 other isoform, or with tags, fused parts or gaps): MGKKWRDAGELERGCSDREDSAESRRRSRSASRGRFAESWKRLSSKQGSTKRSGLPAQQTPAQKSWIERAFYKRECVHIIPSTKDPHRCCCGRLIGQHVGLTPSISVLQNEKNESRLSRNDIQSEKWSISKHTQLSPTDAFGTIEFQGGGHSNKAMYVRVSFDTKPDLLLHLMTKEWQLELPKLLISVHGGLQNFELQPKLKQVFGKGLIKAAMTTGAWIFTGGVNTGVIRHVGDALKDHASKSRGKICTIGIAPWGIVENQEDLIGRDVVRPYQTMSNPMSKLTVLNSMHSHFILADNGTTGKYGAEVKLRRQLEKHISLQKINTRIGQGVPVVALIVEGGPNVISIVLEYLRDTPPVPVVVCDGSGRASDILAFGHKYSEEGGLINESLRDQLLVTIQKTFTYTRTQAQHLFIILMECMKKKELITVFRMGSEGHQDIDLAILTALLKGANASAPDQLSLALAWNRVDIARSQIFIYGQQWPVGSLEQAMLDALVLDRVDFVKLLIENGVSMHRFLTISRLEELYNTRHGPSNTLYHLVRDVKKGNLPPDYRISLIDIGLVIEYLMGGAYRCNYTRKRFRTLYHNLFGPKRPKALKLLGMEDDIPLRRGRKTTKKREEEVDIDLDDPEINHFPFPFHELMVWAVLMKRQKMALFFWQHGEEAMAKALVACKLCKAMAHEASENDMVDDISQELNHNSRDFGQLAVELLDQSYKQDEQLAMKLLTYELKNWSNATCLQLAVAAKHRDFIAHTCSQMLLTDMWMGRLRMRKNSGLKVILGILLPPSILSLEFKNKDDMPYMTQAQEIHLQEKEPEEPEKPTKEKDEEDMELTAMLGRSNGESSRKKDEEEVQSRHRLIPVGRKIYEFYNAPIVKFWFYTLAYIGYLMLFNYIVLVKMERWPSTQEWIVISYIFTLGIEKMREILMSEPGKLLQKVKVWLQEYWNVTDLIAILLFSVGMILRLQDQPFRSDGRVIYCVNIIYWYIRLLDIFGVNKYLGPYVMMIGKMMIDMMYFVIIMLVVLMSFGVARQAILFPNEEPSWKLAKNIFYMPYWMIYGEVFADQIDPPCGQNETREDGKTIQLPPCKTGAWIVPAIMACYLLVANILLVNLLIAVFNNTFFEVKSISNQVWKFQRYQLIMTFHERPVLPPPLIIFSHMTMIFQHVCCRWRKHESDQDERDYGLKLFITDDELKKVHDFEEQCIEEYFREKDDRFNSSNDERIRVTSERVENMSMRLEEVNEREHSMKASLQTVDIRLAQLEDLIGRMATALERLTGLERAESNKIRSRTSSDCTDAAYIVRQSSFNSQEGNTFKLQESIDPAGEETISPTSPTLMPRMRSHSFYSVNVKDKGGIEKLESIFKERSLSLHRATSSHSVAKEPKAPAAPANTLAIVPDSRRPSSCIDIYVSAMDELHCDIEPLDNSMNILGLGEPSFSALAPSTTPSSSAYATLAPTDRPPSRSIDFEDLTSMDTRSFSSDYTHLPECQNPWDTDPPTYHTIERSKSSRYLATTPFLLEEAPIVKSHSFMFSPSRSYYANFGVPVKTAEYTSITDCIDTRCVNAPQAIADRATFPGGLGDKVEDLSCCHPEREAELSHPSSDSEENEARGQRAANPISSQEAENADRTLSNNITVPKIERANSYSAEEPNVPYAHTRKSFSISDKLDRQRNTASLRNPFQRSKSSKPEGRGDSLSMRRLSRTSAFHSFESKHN

| IC50 | SMILES |
| --- | --- |
| 1 to 20 µM | Cc1oc2ccc(OCc3cccnc3C(F)(F)F)c(C)c2c1C(=O)NC1CCNCC1(F)F (single isomer, unassigned) [cpd 538-En 1] |
| 1 to 20 µM | Cc1oc2ccc(OCc3cccnc3C(F)(F)F)cc2c1C(=O)NC1CCNCC1(F)F (single isomer, unassigned) [cpd 539-En 1] |
| < 1 µM | Cc1oc2ccc(OCc3cccnc3C(F)(F)F)cc2c1C(=O)NC1CCNCC1(F)F (single isomer, unassigned) [cpd 539-En 2] |
| 1 to 20 µM | Cc1oc2ccc(OCc3cn(C)nn3)cc2c1C(=O)NC1CCNCC1(F)F (single isomer, unassigned) [cpd 540-En 1] |
| > 20 µM | Cc1oc2ccc(OCc3cn(C)nn3)cc2c1C(=O)NC1CCNCC1(F)F (single isomer, unassigned) [cpd 540-En 2] |
| 1 to 20 µM | Cc1oc2ccc(OCc3cnnn3C)cc2c1C(=O)NC1CCNCC1(F)F (single isomer, unassigned) [cpd 541-En 1] |
| > 20 µM | Cc1oc2ccc(OCc3cnnn3C)cc2c1C(=O)NC1CCNCC1(F)F (single isomer, unassigned) [cpd 541-En 2] |
| 1 to 20 µM | Cc1oc2ccc(OCc3ncn(C)n3)cc2c1C(=O)NC1CCNCC1(F)F (single isomer, unassigned) [cpd 542-En 1] |
| > 20 µM | Cc1oc2ccc(OCc3ncn(C)n3)cc2c1C(=O)NC1CCNCC1(F)F (single isomer, unassigned) [cpd 542-En 2] |
| < 1 µM | Cc1oc2ccc(OCc3ccnn3C)cc2c1C(=O)NC1CCNCC1(F)F (single isomer, unassigned) [cpd 543-En 1] |
| 1 to 20 µM | Cc1oc2ccc(OCc3cccc(=O)n3C)cc2c1C(=O)NC1CCNCC1(F)F (single isomer, unassigned) [cpd 545-En 1] |
| < 1 µM | Cc1oc2ccc(OCc3cccnc3C(F)(F)F)cc2c1C(=O)NC1CCNCC1(F)F (single isomer, unassigned) [cpd 546-En 1] |
| < 1 µM | Cc1ncccc1COc1ccc2oc(C)c(C(=O)NC3CCNCC3(F)F)c2c1 (single isomer, unassigned) [cpd 547-En 1] |
| 1 to 20 µM | Cc1nccc(COc2ccc3oc(C)c(C(=O)NC4CCNCC4(F)F)c3c2)n1 (single isomer, unassigned) [cpd 548-En 1] |
| > 20 µM | Cc1nccc(COc2ccc3oc(C)c(C(=O)NC4CCNCC4(F)F)c3c2)n1 (single isomer, unassigned) [cpd 548-En 2] |
| < 1 µM | Cc1ncc(COc2ccc3oc(C)c(C(=O)NC4CCNCC4(F)F)c3c2)s1 (single isomer, unassigned) [cpd 549-En 1] |
| 1 to 20 µM | Cc1ncc(COc2ccc3oc(C)c(C(=O)NC4CCNCC4(F)F)c3c2)s1 (single isomer, unassigned) [cpd 549-En 2] |
| 1 to 20 µM | Cc1oc2ccc(OCC3(C)COC3)cc2c1C(=O)NC1CCNCC1(F)F (single isomer, unassigned) [cpd 550-En 1] |
| < 1 µM | Cc1coc(COc2ccc3oc(C)c(C(=O)NC4CCNCC4(F)F)c3c2)n1 (single isomer, unassigned) [cpd 551-En 1] |
| 1 to 20 µM | Cc1coc(COc2ccc3oc(C)c(C(=O)NC4CCNCC4(F)F)c3c2)n1 (single isomer, unassigned) [cpd 551-En 2] |
| < 1 µM | Cc1csc(COc2ccc3oc(C)c(C(=O)NC4CCNCC4(F)F)c3c2)n1 (single isomer, unassigned) [cpd 552-En 1] |
| 1 to 20 µM | Cc1csc(COc2ccc3oc(C)c(C(=O)NC4CCNCC4(F)F)c3c2)n1 (single isomer, unassigned) [cpd 552-En 2] |
| < 1 µM | Cc1cc(COc2ccc3oc(C)c(C(=O)NC4CCNCC4(F)F)c3c2)no1 (single isomer, unassigned) [cpd 553-En 1] |
| 1 to 20 µM | Cc1cc(COc2ccc3oc(C)c(C(=O)NC4CCNCC4(F)F)c3c2)no1 (single isomer, unassigned) [cpd 553-En 2] |
| < 1 µM | Cc1cnc(COc2ccc3oc(C)c(C(=O)NC4CCNCC4(F)F)c3c2)cn1 (single isomer, unassigned) [cpd 554-En 1] |
| > 20 µM | Cc1cnc(COc2ccc3oc(C)c(C(=O)NC4CCNCC4(F)F)c3c2)cn1 (single isomer, unassigned) [cpd 554-En 2] |
| < 1 µM | Cc1cnc(COc2ccc3oc(C)c(C(=O)NC4CCNCC4(F)F)c3c2)s1 (single isomer, unassigned) [cpd 555-En 1] |

| IC50 | SMILES |
| --- | --- |
| 1 to 20 µM | Cc1cnc(COc2ccc3oc(C)c(C(=O)NC4CCNCC4(F)F)c3c2)s1 (single isomer, unassigned) [cpd 555-En 2] |
| 1 to 20 µM | Cc1ccc(COc2ccc3oc(C)c(C(=O)NC4CCNCC4(F)F)c3c2)nn1 (single isomer, unassigned) [cpd 556-En 1] |
| > 20 µM | Cc1ccc(COc2ccc3oc(C)c(C(=O)NC4CCNCC4(F)F)c3c2)nn1 (single isomer, unassigned) [cpd 556-En 2] |
| < 1 µM | Cc1oc2ccc(OCc3cccnn3)cc2c1C(=O)NC1CCNCC1(F)F (single isomer, unassigned) [cpd 557-En 1] |
| < 1 µM | Cc1oc2ccc(OCc3cccnc3)cc2c1C(=O)NC1CCNCC1(F)F (single isomer, unassigned) [cpd 558-En 1] |
| 1 to 20 µM | Cc1oc2ccc(OCc3ncccn3)cc2c1C(=O)NC1CCNCC1(F)F (single isomer, unassigned) [cpd 559-En 1] |
| > 20 µM | Cc1oc2ccc(OCc3ncccn3)cc2c1C(=O)NC1CCNCC1(F)F (single isomer, unassigned) [cpd 559-En 2] |
| < 1 µM | Cc1oc2ccc(OCc3nccs3)cc2c1C(=O)NC1CCNCC1(F)F (single isomer, unassigned) [cpd 560-En 1] |
| < 1 µM | Cc1oc2ccc(OCc3nccs3)cc2c1C(=O)NC1CCNCC1(F)F (single isomer, unassigned) [cpd 560-En 2] |
| < 1 µM | Cc1oc2ccc(OCc3cncs3)cc2c1C(=O)NC1CCNCC1(F)F (single isomer, unassigned) [cpd 561-En 1] |
| < 1 µM | Cc1ncsc1COc1ccc2oc(C)c(C(=O)NC3CCNCC3(F)F)c2c1F (single isomer, unassigned) [cpd 562-En 1] |
| < 1 µM | Cc1nc(C)c(COc2ccc3oc(C)c(C(=O)NC4CCNCC4(F)F)c3c2)s1 (single isomer, unassigned) [cpd 563-En 1] |
| < 1 µM | Cc1oc2ccc(OCc3cccnc3O)cc2c1C(=O)NC1CCNCC1(F)F (single isomer, unassigned) [cpd 564-En 1] |
| < 1 µM | COc1ncccc1COc1ccc2oc(C)c(C(=O)NC3CCNCC3(F)F)c2c1 (single isomer, unassigned) [cpd 565-En 1] |
| < 1 µM | COc1ncccc1COc1ccc2oc(C)c(C(=O)NC3CCNCC3(F)F)c2c1 (single isomer, unassigned) [cpd 565-En 2] |
| < 1 µM | Cc1oc2ccc(OCc3ncccc3F)cc2c1C(=O)NC1CCNCC1(F)F (single isomer, unassigned) [cpd 566-En 1] |
| 1 to 20 µM | Cc1oc2ccc(OCc3ncccc3F)cc2c1C(=O)NC1CCNCC1(F)F (single isomer, unassigned) [cpd 566-En 2] |
| > 20 µM | Cc1oc2ccc(OCc3ccc(OCCO)cn3)cc2c1C(=O)NC1CCNCC1(F)F (single isomer, unassigned) [cpd 567-En 1] |
| < 1 µM | Cc1oc2ccc(OCc3ccc(F)cn3)cc2c1C(=O)NC1CCNCC1(F)F (single isomer, unassigned) [cpd 568-En 1] |
| 1 to 20 µM | Cc1oc2ccc(OCc3ccc(F)cn3)cc2c1C(=O)NC1CCNCC1(F)F (single isomer, unassigned) [cpd 568-En 2] |
| < 1 µM | COc1cccc(COc2ccc3oc(C)c(C(=O)NC4CCNCC4(F)F)c3c2)n1 (single isomer, unassigned) [cpd 570-En 1] |
| 1 to 20 µM | COc1cccc(COc2ccc3oc(C)c(C(=O)NC4CCNCC4(F)F)c3c2)n1 (single isomer, unassigned) [cpd 570-En 2] |
| 1 to 20 µM | Cc1oc2ccc(OCc3ccc4nccn4c3)cc2c1C(=O)NC1CCNCC1(F)F (single isomer, unassigned) [cpd 571-En 1] |
| < 1 µM | Cc1ncsc1COc1cc2c(C(=O)NC3CCNCC3(F)F)c(C)oc2cc1F (single isomer, unassigned) [cpd 572-En 1] |
| < 1 µM | Cc1ncsc1COc1cc(F)c2oc(C)c(C(=O)NC3CCNCC3(F)F)c2c1 (single isomer, unassigned) [cpd 573-En 1] |
| 1 to 20 µM | Cc1ncsc1COc1cc(F)c2oc(C)c(C(=O)NC3CCNCC3(F)F)c2c1 (single isomer, unassigned) [cpd 573-En 2] |

same assay, conditions: PS (50 μM) stimulated, cpds. 608-666

| IC50 | SMILES |
| --- | --- |
| < 1 µM | Cc1oc2ccc(OCc3nccn3C)cc2c1C(=O)NC1CNCCC1(F)F (single isomer, unassigned) [cpd 635-En 1] |
| 1 to 20 µM | Cc1oc2ccc(OCc3nccn3C)cc2c1C(=O)NC1CNCCC1(F)F (single isomer, unassigned) [cpd 635-En 2] |
| < 1 µM | Cc1oc2ccc(OCc3ccnn3C)cc2c1C(=O)NC1CNCCC1(F)F (single isomer, unassigned) [cpd 636-En 1] |
